From ChEMBL document CHEMBL1201862, “PubChem BioAssay data set” (2004)
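Step 1: Grow cells in 96-well plates. Step 2: Expose to compound for 48 hours at 5 concentrations. Step 3: Interpolate endpoints linearly; if unreached, use highest concentration. At the GI50, growth is halved.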 The source made the active and inactive calls. Cut-off read from the data, not from the text of the source: active = GI50 up to about 1.1 µM and inactive = higher.

What was measured:
Experiment in all cases: NCI-60 cell line screen, 48 h
[1] = system: 786-0
[2] = system: A498
[3] = system: ACHN
[4] = system: CAKI-1
[5] = system: COLO 205
[6] = system: DU-145
[7] = system: IGROV-1
[8] = system: MCF7
[9] = system: MDA-N
[10] = system: NCI-H23
[11] = system: NCI-H460
[12] = system: NCI-H522
[13] = system: OVCAR-8
[14] = system: PC-3
[15] = system: RPMI-8226
[16] = system: RXF 393
[17] = system: SK-MEL-2
[18] = system: SK-MEL-5
[19] = system: SR
[20] = system: T47D

Measured: GI50

CC(C)c1[nH]nc(C(N)=O)c1/N=N/N(C)C
inactive: [1] > 100 µM | [2] > 100 µM | [3] 65 µM | [4] 16 µM | [5] 67.9 µM | [6] 97.9 µM | [7] > 100 µM | [8] 28.4 µM | [9] > 100 µM | [10] > 100 µM | [11] 42.5 µM | [12] 24.4 µM | [13] > 100 µM | [14] > 100 µM | [15] 60.7 µM | [16] 63.1 µM | [17] > 100 µM | [18] 88.1 µM | [19] 17.1 µM | [20] 79.6 µM

CC(=O)C(=[N+]=[N-])C(=O)NCC#N
inactive: [1] > 10 µM | [2] > 10 µM | [3] > 10 µM | [4] > 10 µM | [5] > 10 µM | [6] > 10 µM | [7] > 10 µM | [8] > 10 µM | [9] > 10 µM | [10] > 10 µM | [11] > 10 µM | [12] > 10 µM | [13] > 10 µM | [14] > 10 µM | [15] > 10 µM | [16] > 10 µM | [17] > 10 µM | [18] > 10 µM | [19] > 10 µM | [20] > 10 µM

CCOC(=O)c1ccc(-c2cccs2)n1C
inactive: [1] > 100 µM | [2] > 100 µM | [3] > 100 µM | [4] > 100 µM | [5] > 100 µM | [6] > 100 µM | [7] > 80.7 µM | [8] > 96.4 µM | [9] > 96.2 µM | [10] > 86.7 µM | [11] > 100 µM | [12] 51.6 µM | [13] > 100 µM | [14] > 100 µM | [15] 84.5 µM | [16] > 66.5 µM | [17] > 100 µM | [18] 33.7 µM | [19] > 64.9 µM | [20] 19 µM

Cc1ccnc2sc3ccccc3c(=O)c12
inactive: [1] 65 µM | [2] 29.8 µM | [3] 35.1 µM | [4] 23.6 µM | [5] 45.7 µM | [6] 84.3 µM | [7] 30.7 µM | [8] 38.4 µM | [9] 39.4 µM | [10] 59 µM | [11] 24 µM | [12] 34.7 µM | [13] 43.1 µM | [14] 35.6 µM | [15] 36.7 µM | [16] 23.9 µM | [17] 81.1 µM | [18] 24.7 µM | [19] 54.8 µM | [20] 55.3 µM

COc1ccc(NC=O)c(C(=O)CCNC(C)=O)c1
inactive: [1] > 100 µM | [2] > 100 µM | [3] > 100 µM | [4] > 100 µM | [5] > 100 µM | [6] > 100 µM | [7] > 100 µM | [8] > 100 µM | [9] > 100 µM | [10] > 100 µM | [11] > 100 µM | [12] > 100 µM | [13] > 100 µM | [14] > 100 µM | [15] > 100 µM | [16] > 100 µM | [17] > 100 µM | [18] > 100 µM | [19] > 100 µM | [20] > 100 µM

Cc1c(C(=O)O)n2cnnc2c2ccccc12
inactive: [1] > 100 µM | [2] > 100 µM | [3] > 100 µM | [4] > 100 µM | [5] > 100 µM | [6] > 100 µM | [7] > 100 µM | [8] > 100 µM | [9] > 100 µM | [10] > 100 µM | [11] > 100 µM | [12] > 100 µM | [13] > 100 µM | [14] > 100 µM | [15] > 100 µM | [16] > 100 µM | [17] > 100 µM | [18] > 100 µM | [19] > 100 µM | [20] > 100 µM

CC(=O)[C@H]1CC[C@H]2[C@@H]3CCC4=CC(=O)CC[C@]4(C)[C@H]3CC[C@]12C [PROGESTERONE]
inactive: [1] 20.6 µM | [2] 24.5 µM | [3] 26 µM | [4] 28.5 µM | [5] 16 µM | [6] 28.1 µM | [7] 24.4 µM | [8] 21.7 µM | [9] 16.7 µM | [10] 18.1 µM | [11] 18.6 µM | [12] 15.6 µM | [13] 18.4 µM | [14] 14.4 µM | [15] 3.24 µM | [16] 22.4 µM | [17] 20 µM | [18] 12.1 µM | [19] > 100 µM | [20] 20.1 µM
